We go through 1 compound from patent publication US20180185431A1, “HOVENIAE SEMEN CUM FRUCTRUS EXTRACT COMPOSITIONS AND METHOD OF USE” (ARIBIO Co., Ltd., priority 2016, published 2018).

For one assay, the system named is HepG2 cells. The experiment in a line: MTT assay, tBHP-induced cytotoxicity (cytoprotection). The class given is cell-based, human. The conditions noted are these: SFN 30 M pretreatment, 150 M tBHP. For orientation: Formazan colour is commonly taken as a measure of viable cells.
Assay [1] relates to ARE (Nrf2), pGL4.37 transfected HepG2 cells. The experiment in a line: ARE-driven luciferase reporter gene assay (Nrf2 transactivation). To be noted: SFN 30 M. The class given is cell-based, human. The procedure:
To examine the possibility that ARE activation by Nrf2 is associated with HSCF extracts-mediated cytoprotection, pGL4.37 tranfected HepG2 cells (5×10^5 cells/well) were plated in 12-well overnight, serum starved for 12 hrs, and then subsequently exposed to 30-1000 μg/ml HSCF extracts for 18 hrs. ARE-driven luciferase activity was measured in the cell treated with HSCF extracts. […] The relative ARE-luciferase activities were 1.39±0.88, 1.62±1.08, 1.91±1.22, and 3.25±0.88 in […] HSCF extracts treated cells, respectively (FIG. 3).
ARE-driven reporter gene construct, pGL4.37 [luc2P/ARE/Hygro] was obtained from promega (Madison, Wis., USA). HepG2 cells were stably transfected with pGL4.37 plasmid using Fugene HD (Promega, Madison, Wis., USA) according to manufacturer's instruction and 80 µg/mL hygromycin was added to select the resistant colonies. The resistant colonies were pooled and used for reporter gene analysis. […] Luciferase activities in cell lysates were measured by adding luciferase assay reagent (Promega, Madison, Wis., USA) using […] automatic multimode reader (Model Infinite 200 PRO; Tecan, Männedorf, Switzerland). The relative luciferase activity was calculated as the relative change to protein content determined by bicinchoninic acid (BCA) method.
A general note: Reporter assays use an easily measured gene product as a stand-in for the process of interest.

As to `C[S+]([O-])CCCCN=C=S` (centres unmarked) [SFN, Sulforaphane], the “protection from tBHP-mediated cell death” value in the assay with HepG2 cells is on record as “significantly protected from tBHP-mediated cell death”. Moreover, in assay [1], the ARE-driven luciferase activity entry is “significantly increased luciferase activity”.
